Where two headings read alike, the source gives them in different places.
Assays:
ABUTH = test: Pre-emergence herbicidal action against harmful plants; type: in vivo, Abutilon theophrasti; conditions: scored visually after 3 weeks
Procedure: (§1) 1. Pre-Emergence Herbicidal Action Against Harmful Plants
(§2) Seeds of monocotyledonous and dicotyledonous weed plants and crop plants are laid out in wood-fiber pots in sandy loam and covered with soil. […] The comparative tests were conducted by way of example on some weed plants and crop plants.

ALOMY [1] = test: as above; type: in vivo; conditions: scored visually after 3 weeks
Procedure: as §1, §2

CYPES = test: as above; type: in vivo; conditions: scored visually after 3 weeks
Procedure: as §1, §2

ZEAMX [2] = conditions: pre-emergence, scored visually after 3 weeks
Procedure: as §1, §2

TRZAS [3] = test: Post-emergence damage to crop plants; type: in vivo; conditions: dosage 5 g/ha, assessed visually after about 3 weeks
Procedure: (§3) 2. Post-Emergence Herbicidal Action Against Harmful Plants
(§4) Seeds of monocotyledonous and dicotyledonous weed and crop plants are laid out in sandy loam in wood-fiber pots, covered with soil and cultivated in a greenhouse under good growth conditions. 2 to 3 weeks after sowing, the test plants are treated at the one-leaf stage.

VERPE = test: Post-emergence herbicidal action against harmful plants; type: in vivo; conditions: dosage 5 g/ha, assessed visually after about 3 weeks
Procedure: as §3, §4

TRZAS [4] = test: Pre-emergence damage to crop plants; type: in vivo; conditions: dosage 20 g/ha, scored visually after 3 weeks
Text: as §1

STEME = test: Pre-emergence herbicidal action against harmful plants; type: in vivo, Stellaria media; conditions: dosage 20 g/ha, scored visually after 3 weeks
Text: as §1

AMARE = test: Post-emergence herbicidal action against harmful plants; type: in vivo, Amaranthus retroflexus; conditions: dosage 5 g/ha, assessed visually after about 3 weeks
Procedure: as §3, §4

ZEAMX [5] = test: Post-emergence damage to crop plants; type: in vivo; conditions: dosage 5 g/ha, assessed visually after about 3 weeks
Procedure: as §3, §4

ALOMY [6] = test: Post-emergence herbicidal action against harmful plants; type: in vivo; conditions: dosage 5 g/ha, assessed visually after about 3 weeks
Procedure: as §3, §4

[7] = dosage 20 g/ha, 100% = plants have died, 0% = like control plants

CCc1nnc([N-]C(=O)c2ccc(S(=O)(=O)CC)c(C3=NOC(COC)C3)c2Cl)o1.[Na+] (stereo not drawn)
Activity against ABUTH (ABUTH; dosage 320 g/ha): 90% | Activity against ALOMY (ALOMY [1]; dosage 320 g/ha): 30% | Activity against CYPES (CYPES; dosage 320 g/ha): 80% | Damage to ZEAMX (ZEAMX [2]; dosage 320 g/ha): 0%

Cc1nnc([N-]C(=O)c2ccc(C(F)(F)F)c([S+](C)[O-])c2Cl)o1.[Na+] (stereo not drawn)
Damage to TRZAS (TRZAS [3]): 0% | Activity against VERPE (VERPE): 70%

Cc1nnc([N-]C(=O)c2ccc(C(F)(F)F)c(S(C)(=O)=O)c2C)o1.[Na+] [drawing 7]
Activity against ABUTH (ABUTH; [7]): 100% | Damage to TRZAS (TRZAS [4]): 0%

Cc1nnc(NC(=O)c2ccc(C(F)(F)F)c(S(C)(=O)=O)c2C)o1 [drawing 8]
Activity against ABUTH (ABUTH; [7]): 70%

Cc1nnc([N-]C(=O)c2ccc(C(F)(F)F)c(S(C)(=O)=O)c2C)o1.[K+] [drawing 9]
Damage to TRZAS (TRZAS [4]): 0% | Activity against STEME (STEME): 90%

Cc1nnc(NC(=O)c2ccc(C(F)(F)F)c(S(C)(=O)=O)c2C)o1 [drawing 10, reference compound]
Activity against STEME (STEME): 70%

Cc1nnc(NC(=O)c2ccc(C(F)(F)F)c(S(C)(=O)=O)c2C)o1 [drawing 11]
Activity against STEME (STEME): 90%

Cc1nnc(NC(=O)c2ccc(C(F)(F)F)c(S(C)(=O)=O)c2C)o1 [drawing 12, reference compound]
Activity against STEME (STEME): 70%

Cc1nnc(NC(=O)c2ccc(C(F)(F)F)c(S(C)(=O)=O)c2C)o1 [drawing 13]
Activity against ABUTH (ABUTH; [7]): 100%

Cc1nnc(NC(=O)c2ccc(C(F)(F)F)c(S(C)(=O)=O)c2C)o1 [drawing 14]
Activity against ABUTH (ABUTH; [7]): 70%

Cc1nnc(NC(=O)c2ccc(C(F)(F)F)c(S(C)(=O)=O)c2C)o1 [drawing 15]
Activity against ABUTH (ABUTH; [7]): 100%

Cc1nnc(NC(=O)c2ccc(C(F)(F)F)c(S(C)(=O)=O)c2C)o1 [drawing 16]
Activity against ABUTH (ABUTH; [7]): 70%

Cc1nnc(NC(=O)c2ccc(C(F)(F)F)c(S(C)(=O)=O)c2C)o1 [drawing 17]
Activity against ABUTH (ABUTH; [7]): 100%

Cc1nnc(NC(=O)c2ccc(C(F)(F)F)c(S(C)(=O)=O)c2C)o1 [drawing 18]
Activity against ABUTH (ABUTH; [7]): 70%

Cc1nnc(NC(=O)c2ccc(C(F)(F)F)c(S(C)(=O)=O)c2C)o1 [drawing 19]
Activity against ABUTH (ABUTH; [7]): 100%

Cc1nnc(NC(=O)c2ccc(C(F)(F)F)c(S(C)(=O)=O)c2C)o1 [drawing 20]
Activity against ABUTH (ABUTH; [7]): 70%

Cc1nnc(NC(=O)c2ccc(C(F)(F)F)c(S(C)(=O)=O)c2C)o1 [drawing 21]
Activity against ABUTH (ABUTH; [7]): 100%

Cc1nnc(NC(=O)c2ccc(C(F)(F)F)c(S(C)(=O)=O)c2C)o1 [drawing 22]
Activity against ABUTH (ABUTH; [7]): 70%

Cc1nnc(NC(=O)c2ccc(C(F)(F)F)c(S(C)(=O)=O)c2C)o1 [drawing 23]
Activity against ABUTH (ABUTH; [7]): 100% | Activity against ALOMY (ALOMY [1]; dosage 20 g/ha): 70% | Activity against CYPES (CYPES; dosage 20 g/ha): 70%

Cc1nnc(NC(=O)c2ccc(C(F)(F)F)c(S(C)(=O)=O)c2C)o1 [drawing 24]
Activity against ABUTH (ABUTH; [7]): 70% | Activity against ALOMY (ALOMY [1]; dosage 20 g/ha): 20% | Activity against CYPES (CYPES; dosage 20 g/ha): 40%

Cc1nnc([N-]C(=O)c2ccc(C(F)(F)F)c(S(C)(=O)=O)c2C)o1.[Na+] [drawing 25]
Activity against ALOMY (ALOMY [1]; dosage 20 g/ha): 60% | Activity against CYPES (CYPES; dosage 20 g/ha): 40% | Damage to ZEAMX (ZEAMX [2]; dosage 20 g/ha): 0%

Cc1nnc(NC(=O)c2ccc(C(F)(F)F)c(S(C)(=O)=O)c2C)o1 [drawing 26]
Activity against ABUTH (ABUTH; [7]): 70% | Activity against ALOMY (ALOMY [1]; dosage 20 g/ha): 20% | Activity against CYPES (CYPES; dosage 20 g/ha): 40%

Cc1nnc(NC(=O)c2ccc(C(F)(F)F)c(S(C)(=O)=O)c2C)o1 [drawing 27]
Activity against ABUTH (ABUTH; [7]): 100% | Activity against ALOMY (ALOMY [1]; dosage 20 g/ha): 60% | Activity against CYPES (CYPES; dosage 20 g/ha): 60%

Cc1nnc(NC(=O)c2ccc(C(F)(F)F)c(S(C)(=O)=O)c2C)o1 [drawing 28]
Activity against ABUTH (ABUTH; [7]): 70% | Activity against ALOMY (ALOMY [1]; dosage 20 g/ha): 20% | Activity against CYPES (CYPES; dosage 20 g/ha): 40%

Cc1nnc(NC(=O)c2ccc(C(F)(F)F)c(S(C)(=O)=O)c2C)o1 [drawing 29]
Activity against ABUTH (ABUTH; [7]): 100% | Activity against ALOMY (ALOMY [1]; dosage 20 g/ha): 10% | Activity against CYPES (CYPES; dosage 20 g/ha): 70%

Cc1nnc(NC(=O)c2ccc(C(F)(F)F)c(S(C)(=O)=O)c2C)o1 [drawing 30]
Activity against ABUTH (ABUTH; [7]): 70% | Activity against ALOMY (ALOMY [1]; dosage 20 g/ha): 20% | Activity against CYPES (CYPES; dosage 20 g/ha): 40%

Cc1nnc(NC(=O)c2ccc(C(F)(F)F)c([S+](C)[O-])c2Cl)o1 (stereo not drawn) [drawing 32]
Activity against ABUTH (ABUTH; [7]): 60% | Activity against ALOMY (ALOMY [1]; dosage 20 g/ha): 20% | Activity against CYPES (CYPES; dosage 20 g/ha): 60%

Cc1nnc(NC(=O)c2ccc(C(F)(F)F)c([S+](C)[O-])c2Cl)o1 (stereo not drawn) [drawing 33]
Activity against ALOMY (ALOMY [1]; dosage 20 g/ha): 60%

Cc1nnc(NC(=O)c2ccc(C(F)(F)F)c([S+](C)[O-])c2Cl)o1 (stereo not drawn) [drawing 34]
Activity against ABUTH (ABUTH; [7]): 60% | Activity against ALOMY (ALOMY [1]; dosage 20 g/ha): 20% | Activity against CYPES (CYPES; dosage 20 g/ha): 60%

CCc1nnc(NC(=O)c2ccc(S(=O)(=O)CC)c(C3=NOC(COC)C3)c2Cl)o1 (stereo not drawn) [drawing 36]
Activity against ABUTH (ABUTH; dosage 320 g/ha): 90% | Activity against ALOMY (ALOMY [1]; dosage 320 g/ha): 10% | Activity against CYPES (CYPES; dosage 320 g/ha): 80%

CCc1nnc(NC(=O)c2ccc(S(=O)(=O)CC)c(C3=NOC(COC)C3)c2Cl)o1 (stereo not drawn) [drawing 37]
Activity against ABUTH (ABUTH; dosage 320 g/ha): 80% | Activity against ALOMY (ALOMY [1]; dosage 320 g/ha): 20% | Activity against CYPES (CYPES; dosage 320 g/ha): 100% | Damage to ZEAMX (ZEAMX [2]; dosage 320 g/ha): 10%

CCc1nnc(NC(=O)c2ccc(S(=O)(=O)CC)c(C3=NOC(COC)C3)c2Cl)o1 (stereo not drawn) [drawing 38]
Activity against ABUTH (ABUTH; dosage 320 g/ha): 10% | Activity against ALOMY (ALOMY [1]; dosage 320 g/ha): 10% | Activity against CYPES (CYPES; dosage 320 g/ha): 80%

Cc1nnc([N-]C(=O)c2ccc(C(F)(F)F)c(S(C)(=O)=O)c2C)o1.[Na+] [drawing 39]
Activity against AMARE (AMARE): 100% | Damage to ZEAMX (ZEAMX [5]): 0%

Cc1nnc(NC(=O)c2ccc(C(F)(F)F)c(S(C)(=O)=O)c2C)o1 [drawing 40, reference compound]
Activity against AMARE (AMARE): 80%

Cc1nnc(NC(=O)c2ccc(C(F)(F)F)c(S(C)(=O)=O)c2C)o1 [drawing 41]
Activity against AMARE (AMARE): 100%

Cc1nnc(NC(=O)c2ccc(C(F)(F)F)c(S(C)(=O)=O)c2C)o1 [drawing 42, reference compound]
Activity against AMARE (AMARE): 80%

Cc1nnc(NC(=O)c2ccc(C(F)(F)F)c(S(C)(=O)=O)c2C)o1 [drawing 43]
Activity against AMARE (AMARE): 100%

Cc1nnc(NC(=O)c2ccc(C(F)(F)F)c(S(C)(=O)=O)c2C)o1 [drawing 44, reference compound]
Activity against AMARE (AMARE): 80%

Cc1nnc(NC(=O)c2ccc(C(F)(F)F)c(S(C)(=O)=O)c2C)o1 [drawing 45]
Activity against AMARE (AMARE): 100%

Cc1nnc(NC(=O)c2ccc(C(F)(F)F)c(S(C)(=O)=O)c2C)o1 [drawing 46, reference compound]
Activity against AMARE (AMARE): 80%

Cc1nnc([N-]C(=O)c2ccc(C(F)(F)F)c(S(C)(=O)=O)c2C)o1.[K+] [drawing 47]
Activity against AMARE (AMARE): 60% | Damage to ZEAMX (ZEAMX [5]): 0%

Cc1nnc(NC(=O)c2ccc(C(F)(F)F)c(S(C)(=O)=O)c2C)o1 [drawing 48, reference compound]
Activity against AMARE (AMARE): 40%

Cc1nnc(NC(=O)c2ccc(C(F)(F)F)c(S(C)(=O)=O)c2C)o1 [drawing 49]
Activity against AMARE (AMARE): 60%

Cc1nnc(NC(=O)c2ccc(C(F)(F)F)c(S(C)(=O)=O)c2C)o1 [drawing 50, reference compound]
Activity against AMARE (AMARE): 40%

Cc1nnc([N-]C(=O)c2ccc(C(F)(F)F)c(S(C)(=O)=O)c2C)o1.[Na+] [drawing 51]
Damage to TRZAS (TRZAS [3]): 0% | Activity against ALOMY (ALOMY [6]): 80% | Activity against VERPE (VERPE): 100%

Cc1nnc(NC(=O)c2ccc(C(F)(F)F)c(S(C)(=O)=O)c2C)o1 [drawing 52, reference compound]
Activity against ALOMY (ALOMY [6]): 60% | Activity against VERPE (VERPE): 60%

Cc1nnc(NC(=O)c2ccc(C(F)(F)F)c(S(C)(=O)=O)c2C)o1 [drawing 53]
Activity against ALOMY (ALOMY [6]): 80% | Activity against VERPE (VERPE): 90%

Cc1nnc(NC(=O)c2ccc(C(F)(F)F)c(S(C)(=O)=O)c2C)o1 [drawing 54, reference compound]
Activity against ALOMY (ALOMY [6]): 60% | Activity against VERPE (VERPE): 60%

Cc1nnc(NC(=O)c2ccc(C(F)(F)F)c([S+](C)[O-])c2C)o1 (stereo not drawn) [drawing 56, reference compound]
Activity against ALOMY (ALOMY [6]): 60% | Activity against VERPE (VERPE): 50%

Cc1nnc(NC(=O)c2ccc(C(F)(F)F)c([S+](C)[O-])c2Cl)o1 (stereo not drawn) [drawing 57]
Activity against VERPE (VERPE): 80%

Cc1nnc(NC(=O)c2ccc(C(F)(F)F)c([S+](C)[O-])c2C)o1 (stereo not drawn) [drawing 58, reference compound]
Activity against ALOMY (ALOMY [6]): 60% | Activity against VERPE (VERPE): 50%

Reference: patent publication US10433553B2, “Salts of N-(1,3,4-oxadiazol-2-yl) aryl carboxylic acid amides and the use of same as herbicides” (BAYER CROPSCIENCE AKTIENGESELLSCHAFT, priority 2015, dated 2019)
